Measured values reported in ChEMBL document CHEMBL5543127, “Design, Synthesis, and Biological Evaluation of 2-Phenoxyalkylhydrazide Benzoxazole Derivatives as Quorum Sensing Inhibitors with Strong Antibiofilm Effect” (J Med Chem, 2024).
Converted amounts (≈) assume the structure as drawn. The source made the active and inactive calls. No cut-off for these calls is given here.

Legend:
Pseudomonas aeruginosa [1] = experiment: Anti-microbial activity against Pseudomonas aeruginosa PAO1 incubated for 20 hrs By CLSI based micro-dilution method; assay type: functional
Staphylococcus aureus [2] = experiment: Anti-microbial activity against methicillin-resistant Staphylococcus aureus ATCC43300 incubated for 20 hrs By CLSI based micro-dilution method; assay type: functional
Escherichia coli = experiment: Anti-microbial activity against penicillin-susceptible Escherichia coli ATCC25922 incubated for 20 hrs By CLSI based micro-dilution method; assay type: functional
Staphylococcus aureus [3] = experiment: Anti-microbial activity against erythromycin-susceptible Staphylococcus aureus ATCC25923 incubated for 20 hrs By CLSI based micro-dilution method; assay type: functional
Bacillus subtilis = experiment: Anti-microbial activity against Bacillus subtilis ATCC9372 incubated for 20 hrs By CLSI based micro-dilution method; assay type: functional
[4] = Inhibition of quorum sensing system in Pseudomonas aeruginosa PAO1 at logarithmic growth period assessed as inhibition of pyocyanin production at 102.4 microg/ml incubated for 18 hrs by pyocyanin inhibition assay; details: dose 102.4 µg/ml
Pseudomonas aeruginosa [5] = experiment: Anti-microbial activity against penicillin-susceptible Pseudomonas aeruginosa 27853 incubated for 20 hrs By CLSI based micro-dilution method; assay type: functional
Bacillus pumilus = experiment: Anti-microbial activity against Bacillus pumilus CMCC63202 incubated for 20 hrs By CLSI based micro-dilution method; assay type: functional

SMILES | MIC (Pseudomonas aeruginosa [1]) | MIC (Staphylococcus aureus [2]) | MIC (Escherichia coli) | MIC (Staphylococcus aureus [3]) | MIC (Bacillus subtilis) | inhibition [4] | MIC (Pseudomonas aeruginosa [5]) | MIC (Bacillus pumilus)
CC(C)c1ccc(/C=N/Nc2nc3ccccc3o2)cc1 | > 512 µg/mL | 256 µg/mL (≈ 916 µM) | > 512 µg/mL | 64 µg/mL (≈ 229 µM) | 512 µg/mL (≈ 1830 µM) | inactive | > 512 µg/mL | 512 µg/mL (≈ 1830 µM)
O=C(CCCCCOc1ccc(Cl)cc1)NNc1nc2ccccc2o1 | > 512 µg/mL | 256 µg/mL (≈ 685 µM) | > 512 µg/mL | 256 µg/mL (≈ 685 µM) | 512 µg/mL (≈ 1370 µM) | inactive | 512 µg/mL (≈ 1370 µM) | 256 µg/mL (≈ 685 µM)
O=C(NNc1nc2ccccc2s1)c1cccc(Cl)c1 | > 512 µg/mL | 128 µg/mL (≈ 421 µM) | > 512 µg/mL | > 512 µg/mL | 512 µg/mL (≈ 1690 µM) |  | 512 µg/mL (≈ 1690 µM) | 256 µg/mL (≈ 843 µM)
Cn1c(=NNC(=O)CCCCOc2ccc(F)cc2)sc2ccccc21 | > 512 µg/mL |  | > 512 µg/mL |  | 512 µg/mL (≈ 1370 µM) | Active | > 512 µg/mL | 256 µg/mL (≈ 685 µM)
O=C(CCCCCOc1ccc(F)cc1)NNc1nc2ccccc2o1 | > 512 µg/mL | > 512 µg/mL | > 512 µg/mL | 512 µg/mL (≈ 1430 µM) | 512 µg/mL (≈ 1430 µM) | inactive | 512 µg/mL (≈ 1430 µM) | > 512 µg/mL
Clc1ccc(/C=N/Nc2nc3ccccc3o2)cc1Cl | > 512 µg/mL | 512 µg/mL (≈ 1670 µM) | > 512 µg/mL | 64 µg/mL (≈ 209 µM) | 512 µg/mL (≈ 1670 µM) | inactive | > 512 µg/mL | > 512 µg/mL
O=C(NNc1nc2ccccc2s1)c1ccc(F)cc1 | > 512 µg/mL | 256 µg/mL (≈ 891 µM) | > 512 µg/mL | > 512 µg/mL | 512 µg/mL (≈ 1780 µM) |  | 512 µg/mL (≈ 1780 µM) | > 512 µg/mL
COc1ccc(OCCCCCC(=O)NNc2nc3ccccc3o2)cc1 | > 512 µg/mL | 512 µg/mL (≈ 1390 µM) | > 512 µg/mL | 256 µg/mL (≈ 693 µM) | 512 µg/mL (≈ 1390 µM) | inactive | 512 µg/mL (≈ 1390 µM) | 512 µg/mL (≈ 1390 µM)
Cc1cccc(C(=O)N/N=c2\sc3ccccc3n2C)c1 | > 512 µg/mL | > 512 µg/mL | > 512 µg/mL | > 512 µg/mL | 512 µg/mL (≈ 1720 µM) |  | > 512 µg/mL | > 512 µg/mL
Cn1c(=NNC(=O)CCCCOc2ccc(Cl)cc2)sc2ccccc21 | > 512 µg/mL |  | > 512 µg/mL | 256 µg/mL (≈ 657 µM) | 512 µg/mL (≈ 1310 µM) | Active | > 512 µg/mL | 256 µg/mL (≈ 657 µM)
CCCCCCCCCC(=O)N/N=c1\sc2ccccc2n1C | > 512 µg/mL | > 512 µg/mL | > 512 µg/mL | 512 µg/mL (≈ 1540 µM) | 512 µg/mL (≈ 1540 µM) | Active | > 512 µg/mL | > 512 µg/mL
CCCCCCC(=O)N/N=c1\sc2ccccc2n1C | > 512 µg/mL | > 512 µg/mL | > 512 µg/mL | > 512 µg/mL | > 512 µg/mL |  | > 512 µg/mL | > 512 µg/mL
Cc1ccc(C(=O)N/N=c2\sc3ccccc3n2C)cc1 | > 512 µg/mL | > 512 µg/mL | > 512 µg/mL | > 512 µg/mL | > 512 µg/mL |  | > 512 µg/mL | > 512 µg/mL
CC[C@H]1OC(=O)[C@H](C)[C@@H](O[C@H]2C[C@@](C)(OC)[C@@H](O)[C@H](C)O2)[C@H](C)[C@@H](O[C@@H]2O[C@H](C)C[C@H](N(C)C)[C@H]2O)[C@](C)(OC)C[C@@H](C)C(=O)[C@H](C)[C@@H](O)[C@]1(C)O [CLARITHROMYCIN] | 256 µg/mL (≈ 342 µM) | 16 µg/mL (≈ 21.4 µM) | 128 µg/mL (≈ 171 µM) | 0.25 µg/mL (≈ 0.334 µM) | 0.25 µg/mL (≈ 0.334 µM) |  | 128 µg/mL (≈ 171 µM) | 0.25 µg/mL (≈ 0.334 µM)
COc1ccccc1C(=O)N/N=c1\sc2ccccc2n1C | > 512 µg/mL | > 512 µg/mL | > 512 µg/mL | > 512 µg/mL | > 512 µg/mL |  | > 512 µg/mL | > 512 µg/mL
CCCCCC(=O)N/N=c1\sc2ccccc2n1C | > 512 µg/mL | > 512 µg/mL | > 512 µg/mL | 256 µg/mL (≈ 923 µM) | > 512 µg/mL |  | > 512 µg/mL | > 512 µg/mL
